Reference: patent US20060276416A1, “Methods and compositions for treating flushing and drug induced weight gain” (Sirtris Pharmaceuticals, Inc., priority 2005, published 2006)

What was measured:
recombinant human SIRT1 = biological target: T1, recombinant human SIRT1 (Homo sapiens, UniProt Q96EB6); experiment: SIRT1 fluorescent deacetylation assay (p53-382 acetylated peptide); assay type: biochemical
T1 sequence (Q96EB6 1-747): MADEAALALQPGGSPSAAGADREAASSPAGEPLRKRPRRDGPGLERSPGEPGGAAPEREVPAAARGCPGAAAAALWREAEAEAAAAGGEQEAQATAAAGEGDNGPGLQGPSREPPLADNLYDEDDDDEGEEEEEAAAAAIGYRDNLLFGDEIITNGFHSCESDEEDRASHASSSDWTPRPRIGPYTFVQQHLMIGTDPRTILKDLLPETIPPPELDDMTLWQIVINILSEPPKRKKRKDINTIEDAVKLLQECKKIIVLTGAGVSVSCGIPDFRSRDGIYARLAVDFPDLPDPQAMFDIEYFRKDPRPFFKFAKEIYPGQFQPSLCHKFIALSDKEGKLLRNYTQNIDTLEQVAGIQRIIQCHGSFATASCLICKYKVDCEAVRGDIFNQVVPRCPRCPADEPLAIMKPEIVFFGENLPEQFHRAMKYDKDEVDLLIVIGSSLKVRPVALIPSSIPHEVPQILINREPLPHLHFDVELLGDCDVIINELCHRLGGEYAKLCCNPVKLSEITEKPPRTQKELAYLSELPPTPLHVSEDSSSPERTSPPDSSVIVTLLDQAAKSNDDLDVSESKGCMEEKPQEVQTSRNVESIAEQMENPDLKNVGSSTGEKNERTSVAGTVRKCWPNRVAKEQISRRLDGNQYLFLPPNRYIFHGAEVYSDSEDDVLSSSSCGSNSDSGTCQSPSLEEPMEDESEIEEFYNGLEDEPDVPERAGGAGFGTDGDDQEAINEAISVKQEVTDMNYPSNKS

recombinant GST-Sir2 = recombinant GST-Sir2 (Saccharomyces cerevisiae, UniProt P06700); experiment: Sir2 deacetylation assay; assay type: biochemical, S. cerevisiae
Chain of recombinant GST-Sir2 (P06700 whole entry): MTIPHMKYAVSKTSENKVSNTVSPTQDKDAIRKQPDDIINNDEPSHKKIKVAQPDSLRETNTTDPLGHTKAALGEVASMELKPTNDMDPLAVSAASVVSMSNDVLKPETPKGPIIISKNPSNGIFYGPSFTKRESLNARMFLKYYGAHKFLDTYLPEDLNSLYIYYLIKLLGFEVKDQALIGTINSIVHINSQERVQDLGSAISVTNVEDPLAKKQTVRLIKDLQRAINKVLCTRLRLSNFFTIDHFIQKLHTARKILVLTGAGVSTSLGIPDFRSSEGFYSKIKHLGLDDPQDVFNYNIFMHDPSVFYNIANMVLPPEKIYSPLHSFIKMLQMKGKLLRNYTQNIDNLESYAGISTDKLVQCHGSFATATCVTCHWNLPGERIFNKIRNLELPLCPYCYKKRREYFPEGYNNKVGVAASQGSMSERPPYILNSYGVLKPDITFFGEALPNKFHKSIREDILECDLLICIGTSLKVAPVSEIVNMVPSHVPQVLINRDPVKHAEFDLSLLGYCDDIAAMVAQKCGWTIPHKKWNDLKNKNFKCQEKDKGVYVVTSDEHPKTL
Procedure: Average lifespan for wild type, 22.9 generations, quercetin, 23.4; piceatannol.
His6-tagged recombinant SIRT1 and GST-tagged recombinant Sir2 were prepared as previously described^26. From 0.1 to 1 μg of SIRT1 and 1.5 μg of Sir2 were used per deacetylation assay (in 50 μl total reaction) as previously described^26. SIRT1 assays and certain of those for Sir2 employed the p53-382 acetylated substrate (‘Fluor de Lys-SIRT1’, BIOMOL) rather than FdL.
Themed compound libraries (BIOMOL) were used for primary and secondary screening. Most polyphenol compounds were dissolved at 10 mM in dimethylsulfoxide (DMSO) on the day of the assay. For water soluble compounds and negative controls, 1% v/v DMSO was added to the assay. In vitro fluorescence assay results were read in white ½-volume 96-well microplates (Corning Costar 3693) with a CytoFluor™ II fluorescence plate reader (PerSeptive Biosystems, Ex. 360 nm, Em. 460 nm, gain=85). HeLa cells were grown and the cellular deacetylation assays were performed and read, as above, but in full-volume 96-well microplates (Corning Costar 3595). […] Calculation of net fluorescence increases included subtraction of a blank value, which in the case of Sir2 was obtained by omitting the enzyme from the reaction and in the case of SIRT1 by adding an inhibitor (200 μM suramin or 1 mM nicotinamide) to the reaction prior to the acetylated substrate. […]

recombinant dSir2 = recombinant dSir2 (Drosophila melanogaster, UniProt Q9VK34); experiment: dSir2 deacetylation assay (Fluor de Lys); assay type: biochemical, D. melanogaster; settings: dose-dependent; maximum
Chain of recombinant dSir2 (Q9VK34 whole entry): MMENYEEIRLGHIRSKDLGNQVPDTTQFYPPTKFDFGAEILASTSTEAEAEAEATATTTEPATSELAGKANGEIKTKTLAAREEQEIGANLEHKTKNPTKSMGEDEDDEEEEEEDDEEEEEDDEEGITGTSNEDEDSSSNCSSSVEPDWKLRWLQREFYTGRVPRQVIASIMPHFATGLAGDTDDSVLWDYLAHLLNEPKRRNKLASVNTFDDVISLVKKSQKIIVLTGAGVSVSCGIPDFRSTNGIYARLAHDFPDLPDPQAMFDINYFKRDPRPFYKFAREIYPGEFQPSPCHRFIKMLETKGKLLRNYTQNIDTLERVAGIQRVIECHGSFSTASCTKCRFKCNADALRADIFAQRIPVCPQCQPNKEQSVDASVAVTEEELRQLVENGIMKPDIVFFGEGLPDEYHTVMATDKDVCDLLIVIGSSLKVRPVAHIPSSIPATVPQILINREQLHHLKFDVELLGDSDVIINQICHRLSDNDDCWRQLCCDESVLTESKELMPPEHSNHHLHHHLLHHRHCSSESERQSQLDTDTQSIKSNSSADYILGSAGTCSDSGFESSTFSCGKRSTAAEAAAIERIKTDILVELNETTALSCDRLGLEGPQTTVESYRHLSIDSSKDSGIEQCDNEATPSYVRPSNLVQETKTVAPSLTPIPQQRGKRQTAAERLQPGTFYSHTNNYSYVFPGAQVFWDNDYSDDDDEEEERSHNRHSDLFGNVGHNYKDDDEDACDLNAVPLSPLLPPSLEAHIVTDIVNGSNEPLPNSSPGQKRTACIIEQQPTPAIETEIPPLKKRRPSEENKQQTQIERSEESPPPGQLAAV
Procedure: From 0.1 to 1 μg of SIR-2.1 and 1 μg of dSir2 were used per deacetylation assay as previously described with modifications (SIR-2.1: 200 μM NAD^+, 10 μM Fluor de Lys, FdL; dSir2: 25 μM NAD^+, 10 μM FdL)^26. STACs were dissolved at 10 mM in dimethylsulfoxide (DMSO) the day of the assay. In vitro fluorescence assay results were read in 96-well microplates (Corning Costar 3693) with a Wallac Victor Multilabel counter (Perkin Elmer, excitation at 360 nm, emission at 450 nm). Drosophila S2 cells were grown in Schneider media with fetal calf serum at 23-28° C., seeded at 9×10^4 cells/well, grown overnight and then exposed to 1 μM TSA, 500 μM polyphenols, and 200 μM FdL for 2 hr. Deacetylation of FdL with lysate from whole cells was determined as described^4. Unless otherwise indicated all initial rate measurements were means of three or more replicates obtained with single incubation times, at which point 5% or less of the substrate initially present was deacetylated.

D. melanogaster = D. melanogaster survival (lifespan) assay; assay type: in vivo
Procedure: Survival assays were conducted independently with adult D. melanogaster in two laboratories. In the first laboratory, all trials used an yw marked wild-type strain. Larvae were reared on standard cornmeal-sugar-yeast (CSY) agar diet (cornmeal 5%, sucrose 10.5%, SAF yeast 2%, and agar 0.7%). Newly eclosed adults were placed in 1 L demography cages with approximately 75 males and 75 females. Three to four replicate 1 L demography cages were used for each treatment group in each trial. Every two days, dead flies were removed and scored, and food vials were replenished. Food vials contained cornmeal-sugar-yeast diet with SAF yeast as either 2% or 3% by weight. Test compounds in 100 μl of EtOH (or blank EtOH in controls) were mixed into melted aliquots of the adult food media to make a final concentration of 0, 10 or 100 μM. Fresh stock solutions and adult media were prepared weekly. In the second laboratory, lifespan trials were conducted with the wild type strain Canton-S, dSir2^4.5 and dSir2^5.26 (S. Smolik, University of Oregon), dSir2^17 (S. Astrom, Stockholm University, Sweden), and dSir2^KG00871 (Drosophila Stock Center, Bloomington, Ind.). Larvae for all tests were reared on standard cornmeal-sugar-yeast diet. Newly eclosed adults were incubated in plastic shell vials containing 5 ml of 15% sugar-yeast diet (15% SY) or 5% sugar-yeast (5% SY) diet (15% SY: 15% yeast, 15% sucrose, 2% agar; 5% SY: 5% yeast, 5% sucrose, 2% agar as per Ref.^20). In all trials, ˜20 males with ˜20 females were placed into each of 10 vials/treatment group. Every two days, flies were passed into new vials and dead flies were counted. […] Final compound concentrations were 0, 10, 100 or 200 μM. Fresh stock solution and adult media was prepared weekly.

[1] = system: TNF-alpha treated adipocytes; experiment: Radioactive glucose uptake in TNF-alpha treated insulin resistant adipocytes; assay type: cell-based; settings: resveratrol 5 μM or 15 μM; roziglitazone 4 μM

Oc1ccc(/C=C/c2cc(O)cc(O)c2)cc1 [Resveratrol, 3,5,4′-Trihydroxy-trans-stilbene]
Concentration at which the activating effect was essentially saturated (recombinant human SIRT1; 25 μM NAD+, 25 μM p53-382 acetylated peptide): 100 λM | Vmax (recombinant human SIRT1; 1 mM p53-382 acetylated peptide, variable NAD+, +100 μM resveratrol (control 1863)): 1749 AFU/min | Vmax (recombinant human SIRT1; 3 mM NAD+, variable p53-382 acetylated peptide, +100 μM resveratrol (control 1107)): 926 AFU/min | Concentrations at which inhibition was seen (recombinant GST-Sir2): > 100 µM | Optimum concentration of activator (recombinant GST-Sir2): 2 to 5 µM | Stimulation of deacetylation (recombinant dSir2): ≤ 2.4 fold | Lifespan increase (D. melanogaster; Canton-S/dSir2 KG0087, maximum): up to 17% | Lifespan extension (in words) (D. melanogaster; dSir2 4.5/5.26 (no functional dSir2) or dSir2 17/KG00871 (severely decreased), 100 μM): failed to extend lifespan | Increase of longevity (in words) (D. melanogaster; flies homozygous for a hypomorphic dSir2 allele): small but statistically significant amount | Longevity under restricted diet (D. melanogaster; restricted diet): neither resveratrol nor fisetin further increased longevity | Lifespan extension (D. melanogaster; wild type strains, males and females, independent tests, maximum): up to 29% | Insulin sensitivity (radioactive glucose uptake) [1]: partially rescued
